The source of these data is patent US5916774A, “D-aminoacylase” (Daicel Chemical Industries, Ltd., priority 1997, dated 1999).

The test system of the test is Amycolatopsis orientalis IFO 12806. The test is described as follows: Induction of D-aminoacylase production by inducers in culture. It is filed as cell-based. The following applies: crude enzyme solution of cells cultured with 0.1% inducer in ISP-2 medium, 30° C., 72 h. The method, then: This microbial strain was cultured in ISP-2 liquid medium as used in Example 1 supplemented with or without N-acetyl-DL-methionine or DL-valine (Kanto Kagaku) (0.1% each) as the enzyme inducer with shaking at 160 rpm at 30° C. for 72 h.
After the incubation, the culture was centrifuged at 8000 rpm (7000×g) for 20 min with a Hitachi Koki refrigerated centrifuge to collect microbial cells. The cells were washed with 50 mM Tris-HCl buffer (pH 7.5) and then centrifuged again with the same centrifuge to harvest the cells to be used in the following processes. The cells were stored at -20° C.
The stored cells were suspended in 20 ml of 50 mM Tris-HCl (pH 7.5), ultrasonicated at 190 W for 10 min, and centrifuged with a Hitachi Koki refrigerated centrifuge at 14,000 rpm (20,000×g) for 20 min. The supernatant thus obtained was used as the crude enzyme solution.
The enzymatic reaction was performed in a total volume of 1.0 ml of a reaction system containing 20 mM N-acetyl-D-methionine, 50 mM Tris-HCl buffer (pH 7.5), 1 mM CoCl2, and 100 μl of the enzyme solution at 30° C. for 10 min. The reaction was terminated by adding a TCA reaction terminating solution.

For the compound `CSCCC(NC(C)=O)C(=O)O` (racemic) [N-acetyl-DL-methionine], the Specific activity came out at 36.0 mU/mg and the Total activity came to 5.1 U. The Activity (20 mM N-acetyl-D-methionine, pH 7.5, 10 min) was found to be 1.6 U/ml.
